In US20250381180A1, “METHODS OF TREATING OR PREVENTING OVERACTIVE BLADDER SYNDROME” (Purdue Pharma L.P., priority 2022, published 2025):
“Also recorded” adds a separate entry of the source.

Assays:
[1] = system: rhythmic bladder contractions (RBC) in anesthetized female rats; experiment: Isovolumetric model: rhythmic bladder contractions (RBC), cystometry; format: in vivo, rat; details: for Inhibition time: after i.v.; for RBC amplitude, basal / RBC frequency, basal: basal period −30/0 min before i.v. administration, group mean
Source text: In rats, under isovolumetric condition, bladder distension induced rhythmic bladder contractions (RBC) (Aizawa et al, (2015) Effects of L-arginine, mirabegron, and oxybutynin on the primary bladder afferent nerve activities synchronized with reflexic, rhythmic bladder contractions in the rat. Neurourology & Urodynamics 34:368-374). This isovolumetric model allows the evaluation of compound on RBC. It is a closed system where the bladder is slowly infused through a urethral catheter with saline until the occurrence of spontaneous rhythmic bladder contractions.
Test substance effects were compared to that of the reference substance, tolterodine, an […], marketed for overactive bladder in humans.
Protocol: • Animals were anesthetized with urethane (i.p.). • Ureters were ligated and sectioned close to the kidneys. • Intravesical catheter was inserted into the bladder though the urinary meatus. • Urinary meatus was closed. • A catheter was inserted into the jugular vein for compound administration. • Bladder was filled with saline until the occurrence of RBC. • After 30 min basal period, compounds were administered as described below. • The effect of the test substances was followed by 1-hour post administration.
Rats were anesthetized with an intraperitoneal administration of urethane (1 g/kg). The ureters were ligated and sectioned close to the kidneys. A catheter (0.30 and 0.70 mm of inner and outer diameters, respectively) was inserted through the urinary meatus into the bladder before urethral ligature. Another catheter (0.58 and 0.96 mm of inner and outer diameters, respectively) was inserted into the jugular vein for intravenous (i.v.) administration.
For all group, animals were treated by i.v. route (1 mL/kg) (slow bolus) after the basal period.
The vesical catheter was connected via a T-tube to a strain gauge (to measure intra-vesical pressure) and to a syringe. Isovolumetric bladder contractions were induced by stepwise injections of physiological saline at room temperature (100 μL every 5 min) until stable RBC occurred. Vesical pressure was continuously recorded. After a 30 min control period (basal values), substances or vehicle were i.v. administered. The effects of substances were followed during 60 min after administration. At the end of the experiments, animals were sacrificed by cervical dislocation.
The following parameters were analyzed: • Amplitude of RBC (mmHg) • Frequency of RBC (number/30 min) • Time of inhibition (sec)
The % variation from the basal values were calculated for RBC frequency and amplitude.
Statistical analysis and graphs were performed using GraphPad Prism® (GraphPad Software Inc., La Jolla, CA, USA). A p value <0.05 was accepted for statistical significance.

conscious SCI rats = experiment: Cystometric parameters in conscious spinal cord injury (SCI) rats; format: in vivo, rat
Protocol: Test substance effects were compared to those of the reference substance, the β3-adrenoceptor agonist mirabegron, marketed for overactive bladder.
• At W-5, spinal cord injury was performed at T8 level as described below. • Over W-5, rats were treated daily with gentamicin. • Over W-5 and W-4, bladder was emptied manually once a day. • From W-5 to W0, animals were weighed once per week. • At D-2 (W0), implantation of catheters was performed under isoflurane anaesthesia as described below. • At D0 (W0), cystometry was performed
Rats were anesthetized with isoflurane (3%). Body temperature was constantly maintained at 37° C. throughout the surgery by placing animals on a thermo-regulated hot plate. A laminectomy was performed and the spinal cord was sectioned with microscissors at T8 level. Care was taken to assure that the section was complete by verifying that a slight retraction of the two segments occurred. Then the muscle was sutured and the skin fixed with staples. The scar was cleaned by Vetedine. For the Sham group, the same surgery was performed without section of the spinal cord.
The urinary bladder was squeezed once a day for 14 days with a gentle massage of the abdomen until restoration of the micturition reflex. In addition, they were administered intramuscularly daily for one week with gentamicin (2 mg/mL, 0.2 ml/rat). Animals were euthanized if they reached humane endpoints: weight loss of greater than 20% of their body weight and/or abnormal behavioral changes indicating presence of pain and distress (prostration, self-mutilation, aggressiveness).
Rats were anesthetized with isoflurane (3%). Body temperature was constantly maintained at 37° C. throughout the surgery by placing animals on a thermo-regulated hot plate. A polyethylene catheter (0.58 and 0.96 mm of inner and outer diameters, respectively) was implanted in the bladder through the dome for intravesical pressure recording. Another catheter (0.58 and 0.96 mm of inner and outer diameters, respectively) was implanted in the stomach for intra-gastric administration. Catheters were exteriorized at the scapular level. After surgery, each rat was housed individually up to the end of the protocol with free access to food and water.
Animals were held under partial restraint in a restraining device. Saline was infused into the bladder at a constant flow rate of 2 or 6 mL/h for sham or SCI rats, respectively. After at least 45 min (3 complete micturition cycles corresponding to basal values), test substances were administered by intra-gastric route. Then, intravesical pressure was recorded for 90 min.
The following cystometric parameters were analyzed (see FIG. 10): • Amplitude of micturition (AM, mmHg). • Threshold pressure (ThP, mmHg). • Intercontraction interval (ICI, sec): time between basal pressure and ThP. ICI was not presented due to different infusion rate in sham and SCI rats. ICI was only analyzed to calculate the bladder capacity. • Bladder capacity (BC, mL) BC=ICI×infusion rate. • Amplitude of non voiding contractions (NVC, mmHg) • Frequency of NVC (number per min).
For each cystometric parameter and for each time period, the comparisons were performed as described below: • Basal values of each cystometric parameter of Sham/Vehicle and SCI/Vehicle groups were compared using unpaired student t test • Basal values of each cystometric parameter of all SCI groups were compared using one-way ANOVA or Kruskal-Wallis test • The 3 interval periods of 30 min post treatment of each cystometric parameter within the same group were compared to corresponding basal values using one-way ANOVA with repeated measures or Friedman test followed by Dunnett's or Dunn's post-test, respectively. • The 3 interval periods of 30 min post treatment of each cystometric parameter were compared between all SCI groups using one-way ANOVA or Kruskal Wallis test followed by Holm-Sidak's or Dunn's post-test versus Vehicle, respectively.

[2] = 0/60 min after i.v., Cpd (IA) 3 mg/kg (n=8), tolterodine 1 mg/kg, mean
[3] = 0/60 min after i.v., Cpd (IA) 3 mg/kg, tolterodine 1 mg/kg, mean
[4] = 0/60 min after i.v., Cpd (IA) 3 mg/kg, tolterodine 1 mg/kg, mean, listed as compound of formula (IA)
[5] = listed as compound of formula (IA)
[6] = i.v., Cpd (IA) 3 mg/kg, tolterodine 1 mg/kg, vs basal
[7] = i.v., Cpd (IA) 3 mg/kg, tolterodine 1 mg/kg, vs vehicle
[8] = i.g., Cpd (IA) 30 mg/kg, mirabegron 10 mg/kg

O=C(O)c1nc2ccccc2n([C@H]2C[C@H]3CCC[C@@H](C2)N3C2CC3CCCC(C3)C2)c1=O (stereo partly shown) [Cpd (IA)]
RBC amplitude, % variation from basal [1, 2]: 1.25%
RBC amplitude, treated period [1, 2]: 27.57 mmHg
RBC frequency, % variation from basal [1, 3]: ~88.57%
RBC frequency, treated period [1, 3]: 3.05 nb of RBC/30 min
RBC frequency, % variation from basal [1, 4]: -88.57±3.68%
RBC frequency, treated period [1, 4]: 3.05±1.02 nb of RBC/30 min
Inhibition time ([1]; Cpd (IA) 3 mg/kg, tolterodine 1 mg/kg, mean): 2860.51 s
Inhibition time ([1]; Cpd (IA) 3 mg/kg, tolterodine 1 mg/kg, mean, listed as compound of formula (IA)): 2860.51 ± 272.38 s
RBC amplitude, basal [1]: 29.49 mmHg
RBC frequency, basal [1]: 25.90 nb of RBC/30 min
RBC amplitude, basal [1, 5]: 29.49±2.46 mmHg
RBC frequency, basal [1, 5]: 25.90±1.36 nb of RBC/30 min
bladder afferent activity ([1]; conclusion of Example 1): significantly decreased
RBC amplitude, effect versus basal [1, 6]: No significant effect
RBC frequency, effect versus basal [1, 6]: significantly decreased
RBC amplitude (% variation), effect versus vehicle [1, 7]: did not significantly modify
RBC frequency (% variation), effect versus vehicle [1, 7]: significantly decreased
time of inhibition, effect versus vehicle [1, 7]: significantly increased
% of variation from basal values of BC (conscious SCI rats; Cpd (IA) 30 mg/kg i.g., 0-30 min interval, mean±s.e.m., vehicle −0.4±15): −35±7%
AM (amplitude of micturition), effect versus basal (conscious SCI rats; [8]): did not significantly modify
AM (mmHg and % variation), effect versus vehicle (conscious SCI rats; [8]): not significantly modified
BC expressed in % variation from basal, effect versus vehicle (conscious SCI rats; [8]): significantly decreased BC for the 0-30 min post-administration interval period; also recorded: significantly reduced BC, compared to vehicle, for the 0-30 min post-administration interval period
BC expressed in mL, effect versus vehicle (conscious SCI rats; [8]): no significant difference
NVC amplitude (mmHg or % variation), effect versus vehicle (conscious SCI rats; [8]): not significantly modified
NVC amplitude, effect versus basal (conscious SCI rats; [8]): significantly decreased NVC amplitude for the 30-60 and 60-90 min post-administration interval periods
NVC frequency (NVC/min and % variation), effect versus vehicle (conscious SCI rats; [8]): not significantly modified
NVC frequency, effect versus basal (conscious SCI rats; [8]): significantly decreased NVC frequency for the 0-30 and 60-90 min interval periods
ThP (mmHg and % variation), effect versus vehicle (conscious SCI rats; [8]): not significantly modified
ThP (threshold pressure), effect versus basal (conscious SCI rats; [8]): no significant effect
BC (bladder capacity), effect versus basal (conscious SCI rats; i.g., Cpd (IA) 30 mg/kg, mirabegron 10 mg/kg, 30-min interval periods to 90 min): significantly decreased BC for the 0-30 and 30-60 min post-administration interval periods
NVC frequency, effect versus basal (conscious SCI rats; i.g., Cpd (IA) 30 mg/kg, mirabegron 10 mg/kg, listed as compound of formula (IA)): significantly decreased NVC frequency compared to basal value for the 0-30 and 60-90 min post-administration interval periods
